Experimental data: patent US7371412B2, “Pharmaceutical compositions comprising an extract of Euphorbia prostrata” (priority 2004, dated 2008)

Legend:
[1] = test system: carrageenan-induced hemorrhoids; test: Antihaemorrhoidal activity, anorectum:body weight ratio model; format: in vivo; details: rats, p.o.; for effect against carrageenan-induced hemorrhoids: chronic administration (7 days)
Experimental: The antihaemorrhoidal activity of the Euphorbia prostrata extract was assessed and compared with reference drug, diosmin using anorectum:body weight ratio model in rats (modified method of Jia et al., 2000).
FIG. 1: Effect of Euphorbia prostrata extract (E.p. extract) against carrageenan-induced hemorrhoids in rats.
FIG. 2: Effect of individual component of Euphorbia prostrata extract (E.p. extract) against carrageenan-induced hemorrhoids in rats.

histamine release = details: in vivo (Bhargava and Westfall, 1969); cited from earlier work
[2] = test system: acetic acid-induced chemonociception; test: Acetic acid-induced writhing; format: in vivo; details: mice; for antinociceptive effect in the writhing test: p.o.
murine macrophages = murine macrophages (Xagorari et al., 2001); cited from earlier work
rat liver microsomes = details: CCl4 induced peroxidation; rat liver microsomes (Cholbi et al., 1991); cited from earlier work
[3] = test system: iNOS (inducible nitric oxide synthase); details: lipopolysaccharide activated RAW 264.7 macrophages (Liang et al., 1999); cited from earlier work
COX-2 = details: lipopolysaccharide activated RAW 264.7 macrophages (Liang et al., 1999); cited from earlier work
[4] = test system: oedematous response to croton oil; details: Della Loggia et al., 1986; cited from earlier work
[5] = In vitro superoxide radical scavenging activity; format: biochemical; details: 25 μg
From the text: FIG. 9: In vitro superoxide radical scavenging activity of Euphorbia prostrata extract (E.p. extract).

[6] = test system: carrageenan-induced hyperalgesia; test: Carrageenan-induced hyperalgesia, paw pressure test; format: in vivo; details: rats; 2 mg/kg
From the text: FIG. 7: Effect of Euphorbia prostrata extract (E.p. extract) against carageenan-induced hyperalgesia in rats.

Q: With `O=c1oc2c(O)c(O)cc3c(=O)oc4c(O)c(O)cc1c4c23` [ellagic acid] as the compound, how does the “effect against carrageenan-induced hemorrhoids” value ([1]; 1.204 mg/kg) read?
A: Its value is “showed effect”.

Q: And the “histamine release mediated by histamine liberators (compound 48/80, dextran and polymyxin B sulfate)” value (histamine release)?
A: The value was “suppress histamine release”.

Q: Which “anorectal body weight ratio” value ([1]; 50 mg/kg, 7 days) does the source give for `COc1ccc(-c2cc(=O)c3c(O)cc(O[C@@H]4O[C@H](CO[C@@H]5O[C@@H](C)[C@H](O)[C@@H](O)[C@H]5O)[C@@H](O)[C@H](O)[C@H]4O)cc3o2)cc1O` [diosmin, reference compound] here?
A: The value was “significantly decreased”.

Q: And the “histopathological examination of the anorectum” value ([1]; 50 mg/kg, 7 days)?
A: Its value is “intact mucosal layer with prominent mucosal cells and mild leukocyte migration”.

Q: With `O=c1cc(-c2ccc(O)c(O)c2)oc2cc(O[C@@H]3O[C@H](CO)[C@@H](O)[C@H](O)[C@H]3O)cc(O)c12` [luteolin-7-glucoside] as the compound, how does the “antinociceptive effect in the writhing test” value ([2]; 0.25, 0.5, and 1.0 mg/kg) read?
A: The value was “dose-dependent antinociceptive effect”.

Q: Which “protein tyrosin phosphorylation, nuclear factor-κB mediated gene expression and pro-inflammatory cytokine production” value (murine macrophages) does the source give for `O=c1cc(-c2ccc(O)c(O)c2)oc2cc(O)cc(O)c12` [luteolin] here?
A: The value was “inhibits”.

Q: What about the antiperoxidative activity (rat liver microsomes) of the same compound?
A: Its antiperoxidative activity is “significant antiperoxidative activity”.

Q: What does the source list for `O=c1cc(-c2ccc(O)cc2)oc2cc(O)cc(O)c12` [apigenin]?
A: inhibition of transcriptional activation of iNOS [3]: most potent inhibitor; antiperoxidative activity (rat liver microsomes): significant antiperoxidative activity; inhibition of transcriptional activation of COX-2 (COX-2): most potent inhibitor

Q: Which “oedematous response to croton oil” value [4] does the source give for `O=c1cc(-c2ccc(O)c(O)c2)oc2cc(O[C@@H]3O[C@H](CO)[C@H](O)[C@H](O)[C@H]3O)cc(O)c12` [luteolin-7-galactoside] here?
A: Its value is “dose dependent inhibition”.

Q: For tocopherol, which “superoxide radical scavenging activity” value [5] is on record?
A: Its value is 25.54%.

Q: For `O=c1cc(-c2ccc(O)cc2)oc2cc(O[C@@H]3O[C@H](CO)[C@@H](O)[C@H](O)[C@H]3O)cc(O)c12` [apigenin-7-glucoside], which “effect against carrageenan-induced hemorrhoids” value ([1]; 0.478 mg/kg) is on record?
A: Its value is “showed effect”.

Q: And the “oedematous response to croton oil” value [4]?
A: The value was “dose dependent inhibition”.

Q: And the “antinociceptive effect in the writhing test” value ([2]; 0.5, 1.0, and 2.0 mg/kg)?
A: Its value is “dose-dependent antinociceptive effect”.

Q: Which “effect against carrageenan-induced hemorrhoids” value ([1]; 1.123 mg/kg) does the source give for `O=C(O)c1cc(O)c(O)c(O)c1` [gallic acid] here?
A: Its value is “showed effect”.

Q: For `CS(=O)(=O)Nc1ccc([N+](=O)[O-])cc1Oc1ccccc1` [nimesulide, reference compound], which paw withdrawal latencies [6] is on record?
A: Its paw withdrawal latencies is “increased”.

Q: And the pain threshold ([2]; 2 mg/kg)?
A: Its pain threshold is “significantly increased”.
